Measurements: patent US9434711B2 (Janssen Pharmaceutica, NV, priority 2007, dated 2016)
“And” between values parts separate entries of the source, which are not always exact repeats. Equal values may be shown once.

Assays:
canine TRPM8 [1] = biological target: T1, canine TRPM8 (Canis lupus familiaris, UniProt Q1A7N1); assay: TRPM8 Patch Clamp Assays (whole-cell, menthol or cold activation); type: cell-based
Description: For patch clamp experiments, HEK293 cells are stably transfected with canine TRPM8 and cultured in DMEM supplemented with 10% fetal bovine serum, 100 units/ml penicillin, 100 μg/ml streptomycin and 1 mg/ml G418. Cells are maintained at 37° C. and in 5% CO2.
The extracellular solution contains (in mM): NaCl, 132; EGTA, 1; KCl, 5.4; MgCl2, 0.8; HEPES, 10; glucose, 10; pH=7.4. Recordings are performed using the conventional whole-cell patch clamp technique, 1-2 days after plating cells onto glass coverslips at densities appropriate for single cell recording. Currents are amplified by a patch clamp amplifier and filtered at 2 kHz (Axopatch 200B, Molecular Devices, Union City, Calif.). Menthol (100 μM) is applied to the cell at 0.5 ml/min via a gravity-fed perfusion system. Recordings involving menthol activation are performed at 22° C.
In experiments where temperatures are varied, temperature ramps are generated by cooling the perfusate in an in-line cooler (Model SC-20, Warner Instruments, Hamden, Conn.) controlled by a temperature controller (Model CL-100, Warner Instruments). The temperature in the vicinity of the recorded cell is measured with a custom-made miniature thermo-microprobe connected to a monitoring thermometer (Model TH-8, Physitemp, Clifton, N.J.), and sampled using Digidata 1322A and pClamp 9.0 (Molecular Devices), as are the currents concurrently measured in the whole-cell patch clamp mode. The current is continuously sampled (at 100 Hz) at a holding potential of −60 mV.
Compounds of the formula (I) are diluted from 10 mM DMSO stocks (stored at −20° C.) into an extracellular solution either containing 100 μM menthol or subjected to cooling. Increasing concentrations of a compound are applied to a cell in a cumulative manner and concentration-dependent responses are measured after steady-state activation is achieved by either 100 μM menthol or cooling to 10° C. A saturating concentration of a reference antagonist is applied at the end of an experiment (either in the presence of 100 μM menthol or 10° C. temperature) to establish the baseline from which all the other measurements are subtracted.
Percentage inhibition by a compound is calculated as follows:
100×(1−Icomp/I0); where Icomp and I0 are steady-state current amplitudes in either the presence or absence of a concentration of compounds of the formula (I).

Sprague-Dawley rats = assay: CFA-Induced Paw Radiant Heat Hypersensitivity; type: in vivo, rat; settings: HPbCD, Na salt form
Description: Intraplantar injection of complete Freund's adjuvant (CFA) in rodents results in a long-lasting inflammatory reaction, characterized by a pronounced hypersensitivity to both thermal and mechanical stimuli. This hypersensitivity peaks between 24-72 hours following injection and can last for several weeks. To assess whether test compounds of the formula (I) reverse established hypersensitivity, a 100 μL intraplantar injection of CFA (suspended in a 1:1 emulsion of saline and heat-killed Mycobacterium tuberculosis in mineral oil) can be injected into a single hind paw of Sprague-Dawley rats (typically males ranging from 150-350 g). This paradigm also may be conducted with a multiple dosing or a prophylactic dosing regime designed to alter the course of hyperalgesia development. This test predicts the analgesic, anti-allodynic and antihyperalgesic effect of numerous effective clinical agents, including acetaminophen, NSAIDS such as aspirin and ibuprofen, and opioids, such as morphine.
Each rat is placed in a test chamber on a warm glass surface and allowed to acclimate for approximately 10 minutes. A radiant thermal stimulus (beam of light) is then focused through the glass onto the plantar surface of each hind paw in turn. The thermal stimulus is automatically shut off by a photoelectric relay when the paw is moved or when the cut-off time is reached (20 seconds for radiant heat at […]). An initial (baseline) response latency to the thermal stimulus is recorded for each animal prior to the injection of CFA. Twenty-four hours following intraplantar CFA injection, the response latency of the animal to the thermal stimulus is then re-evaluated and compared to the animal's baseline response time. […] Immediately following the post-CFA latency assessment, test compound or vehicle (usually Solutol, hydroxypropyl methylcellulose, hydroxypropyl beta-cyclodextrin or PEG-400) is administered i.p. or p.o. to rats. Post-compound treatment withdrawal latencies are assessed at fixed time intervals, typically 30, 60 and 120 minutes. The percent reversal (% R) of hypersensitivity is calculated according to the following formula: % Reversal=(Treatment Response-CFA Response)/(Baseline Response-CFA Response)×100.

canine TRPM8 [2] = biological target: T1, canine TRPM8; assay: In Vitro Canine TRPM8 Functional Assay (Ca2+ fluorescence, icilin activation); type: cell-based; settings: for IC50: HEK293 cells stably expressing canine TRPM8, icilin activation, eight-point dose-response, read-out: IC50; for inhibition at 0.2 µM: compound at 0.2 μM, canine TRPM8, icilin activation, read-out: % Inh @ 0.2
Procedure, shortened: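 Cells (HEK293, stable canine TRPM8) are seeded 24 h before assay. They are then dye-loaded with Calcium 3 at 37 °C followed by room temperature. Compound is added and monitored for 5 min, after which icilin (~80% maximal response) is added.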

T1 sequence (Q1A7N1 1-1104): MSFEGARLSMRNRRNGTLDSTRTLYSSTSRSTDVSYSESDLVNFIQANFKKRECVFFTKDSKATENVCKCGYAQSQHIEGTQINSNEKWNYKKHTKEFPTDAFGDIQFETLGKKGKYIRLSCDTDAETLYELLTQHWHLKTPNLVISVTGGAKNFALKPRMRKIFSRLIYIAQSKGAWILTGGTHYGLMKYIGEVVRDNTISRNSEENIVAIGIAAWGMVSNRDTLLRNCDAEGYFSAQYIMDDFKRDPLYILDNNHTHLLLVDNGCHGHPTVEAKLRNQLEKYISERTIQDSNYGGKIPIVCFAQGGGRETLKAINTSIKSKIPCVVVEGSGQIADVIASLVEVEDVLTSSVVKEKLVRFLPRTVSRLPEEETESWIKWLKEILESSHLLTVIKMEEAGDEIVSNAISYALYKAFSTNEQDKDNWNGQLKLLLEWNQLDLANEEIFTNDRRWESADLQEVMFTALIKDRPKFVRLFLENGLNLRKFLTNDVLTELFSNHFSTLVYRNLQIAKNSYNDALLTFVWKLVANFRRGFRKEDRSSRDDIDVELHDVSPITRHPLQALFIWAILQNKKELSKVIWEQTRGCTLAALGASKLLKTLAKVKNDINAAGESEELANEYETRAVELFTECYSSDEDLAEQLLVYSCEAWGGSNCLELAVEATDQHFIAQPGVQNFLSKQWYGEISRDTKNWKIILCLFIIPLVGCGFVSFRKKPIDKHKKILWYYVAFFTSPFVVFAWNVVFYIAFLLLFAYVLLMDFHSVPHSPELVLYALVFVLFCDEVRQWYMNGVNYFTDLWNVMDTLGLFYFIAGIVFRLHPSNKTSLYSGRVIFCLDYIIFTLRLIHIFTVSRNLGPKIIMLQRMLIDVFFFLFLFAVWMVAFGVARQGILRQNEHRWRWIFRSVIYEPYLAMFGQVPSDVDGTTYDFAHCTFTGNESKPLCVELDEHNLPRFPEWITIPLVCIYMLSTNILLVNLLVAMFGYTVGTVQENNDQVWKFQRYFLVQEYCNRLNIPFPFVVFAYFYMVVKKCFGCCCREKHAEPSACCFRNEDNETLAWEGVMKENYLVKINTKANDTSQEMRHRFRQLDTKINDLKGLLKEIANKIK

IC50 (canine TRPM8 [1]; cold stimulation) [nM]	inhibition at 0.001 µM (canine TRPM8 [1]; cold stimulation) [%]	inhibition at 0.003 µM (canine TRPM8 [1]; cold stimulation) [%]	IC50 (canine TRPM8 [1]; menthol stimulation) [nM]	inhibition at 0.0003 µM (canine TRPM8 [1]; menthol stimulation) [%]	inhibition at 0.001 µM (canine TRPM8 [1]; menthol stimulation) [%]	inhibition at 0.003 µM (canine TRPM8 [1]; menthol stimulation) [%]	IC50 (canine TRPM8 [2]) [nM]	inhibition at 0.2 µM (canine TRPM8 [2]) [%]	Compound	also measured
2.3	22.4	60.1	1.1	11.6	47.3	78	0.8	102	Cc1c(N(Cc2ccc(F)c(C(F)(F)F)c2)S(=O)(=O)c2ccc(C(=O)O)cc2)sc2ccccc12 [Compound 306, N-(3-Methyl-benzo[b]thiophen-2-yl)-N-(4-fluoro-3-trifluoromethyl-benzyl)-4-carboxy-benzenesulfonamide]	inhibition at 0.01 µM (canine TRPM8 [1]; cold stimulation): 86.2%; inhibition at 0.03 µM (canine TRPM8 [1]; cold stimulation, 0.03 μM): 97.3%; inhibition at 0.01 µM (canine TRPM8 [1]; menthol stimulation): 94.9%; Percent Reversal (Sprague-Dawley rats; dose 3 p.o., treatment time 100 min): 31%; Percent Reversal (Sprague-Dawley rats; dose 5.6 p.o., treatment time 100 min): 76%; Percent Reversal (Sprague-Dawley rats; dose 10 p.o., treatment time 100 min): 91% and 93%; Percent Reversal (Sprague-Dawley rats; dose 30 p.o., treatment time 100 min): 59%
0.554	77.7	96.4	0.183	68.6	95.8	99.6	0.8	101	Cc1c(N(Cc2ccc(OC(F)(F)F)cc2)S(=O)(=O)c2ccc(C(=O)O)cc2)sc2ccccc12 [Compound 496, N-(3-Methyl-benzo[b]thiophen-2-yl)-N-(4-trifluoromethoxy-benzyl)-4-carboxy-benzenesulfonamide]	inhibition at 0.0003 µM (canine TRPM8 [1]; cold stimulation): 21.6%; inhibition at 0.0001 µM (canine TRPM8 [1]; menthol stimulation, 0.0001 μM): 27.5%; Percent Reversal (Sprague-Dawley rats; dose 1 p.o., treatment time 60 min): 9%; Percent Reversal (Sprague-Dawley rats; dose 3 p.o., treatment time 60 min): −10%; Percent Reversal (Sprague-Dawley rats; dose 5.6 p.o., treatment time 60 min): 10%; Percent Reversal (Sprague-Dawley rats; dose 30 p.o., treatment time 60 min): 30%
